Test results from patent US10485235B2, “Aryloxypyrimidinyl ethers as herbicides” (FMC Corporation, priority 2015, dated 2019).

Assays:
Assay type in all cases: in vivo
[1] = system: ducksalad (Heteranthera limosa); assay: Test B flooded paddy test, ducksalad; conditions: 250 g ai/ha, Flood; visual rating after 13 to 15 days; scale 0 to 100, 0 is no effect, 100 is complete control
How it was run: (§1)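 Visual ratings, 0 = no effect to 100 = complete control, versus controls after 13 to 15 days in greenhouse. Test compounds were added to paddy water kept 3 cm over the soil surface, on plants at 2-leaf stage.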

[2] = system: galium (catchweed bedstraw, Galium aparine); assay: Test A postemergence, galium; conditions: postemergence, 0 to 100 scale, 0 is no effect, 100 is complete control, approximately 10 days
How it was run: (§2)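 Pre- and postemergence greenhouse screen in loam–sand soil. Test chemicals were delivered in a non-phytotoxic solvent with surfactant, preemergence as a directed spray onto seeded soil and postemergence onto 2–10 cm seedlings. Injury was judged by eye after ~10 days on a 0–100 scale.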

[3] = system: pigweed (Amaranthus retroflexus); assay: Test A postemergence, pigweed; conditions: postemergence, 0 to 100 scale, 0 is no effect, 100 is complete control, approximately 10 days
How it was run: as §2

rice (Oryza sativa) = assay: Test B flooded paddy test, rice; conditions: 250 g ai/ha, Flood; visual rating after 13 to 15 days; scale 0 to 100, 0 is no effect, 100 is complete control
How it was run: as §1

[4] = system: foxtail, giant (giant foxtail, Setaria faberii); assay: Test A postemergence, giant foxtail; conditions: postemergence, 0 to 100 scale, 0 is no effect, 100 is complete control, approximately 10 days
How it was run: as §2

[5] = system: ragweed (common ragweed, Ambrosia elatior); assay: Test A postemergence, ragweed; conditions: postemergence, 0 to 100 scale, 0 is no effect, 100 is complete control, approximately 10 days
How it was run: as §2

[6] = system: ryegrass, Italian (Italian ryegrass, Lolium multiflorum); assay: Test A postemergence, Italian ryegrass; conditions: postemergence, 0 to 100 scale, 0 is no effect, 100 is complete control, approximately 10 days
How it was run: as §2

kochia (Kochia scoparia) [7] = assay: Test A postemergence, kochia; conditions: postemergence, 0 to 100 scale, 0 is no effect, 100 is complete control, approximately 10 days
How it was run: as §2

[8] = system: blackgrass (Alopecurus myosuroides); assay: Test A postemergence, blackgrass; conditions: postemergence, 0 to 100 scale, 0 is no effect, 100 is complete control, approximately 10 days
How it was run: as §2

[9] = system: sedge, umbrella (small-flower umbrella sedge, Cyperus difformis); assay: Test B flooded paddy test, umbrella sedge; conditions: 250 g ai/ha, Flood; visual rating after 13 to 15 days; scale 0 to 100, 0 is no effect, 100 is complete control
How it was run: as §1

[10] = system: barnyardgrass (Echinochloa crus-galli); assay: Test B flooded paddy test, barnyardgrass; conditions: 250 g ai/ha, Flood; visual rating after 13 to 15 days; scale 0 to 100, 0 is no effect, 100 is complete control
How it was run: as §1

[11] = system: ragweed (common ragweed, Ambrosia elatior); assay: Test A preemergence, ragweed; conditions: Preemergence, 0 to 100 scale (0 no effect, 100 complete control)
How it was run: as §2

kochia (Kochia scoparia) [12] = assay: Test A preemergence, kochia; conditions: Preemergence, 0 to 100 scale (0 no effect, 100 complete control)
How it was run: as §2

[13] = system: ryegrass, Italian (Italian ryegrass, Lolium multiflorum); assay: Test A preemergence, Italian ryegrass; conditions: Preemergence, 0 to 100 scale (0 no effect, 100 complete control)
How it was run: as §2

[14] = system: barnyardgrass (Echinochloa crus-galli); assay: Test A postemergence, barnyardgrass; conditions: postemergence, 0 to 100 scale, 0 is no effect, 100 is complete control, approximately 10 days
How it was run: as §2

corn (Zea mays) = assay: Test A postemergence, corn; conditions: postemergence, 0 to 100 scale, 0 is no effect, 100 is complete control, approximately 10 days
How it was run: as §2

[15] = system: wheat (Triticum aestivum); assay: Test A postemergence, wheat; conditions: postemergence, 0 to 100 scale, 0 is no effect, 100 is complete control, approximately 10 days
How it was run: as §2

[16] = system: foxtail, giant (giant foxtail, Setaria faberii); assay: Test A preemergence, giant foxtail; conditions: Preemergence, 0 to 100 scale (0 no effect, 100 complete control)
How it was run: as §2

[17] = system: pigweed (Amaranthus retroflexus); assay: Test A preemergence, pigweed; conditions: Preemergence, 0 to 100 scale (0 no effect, 100 complete control)
How it was run: as §2

[18] = system: barnyardgrass (Echinochloa crus-galli); assay: Test A preemergence, barnyardgrass; conditions: Preemergence, 0 to 100 scale (0 no effect, 100 complete control)
How it was run: as §2

Structure (SMILES)	Plant response rating, Ducksalad [1]	Plant response rating, Galium ([2]; 125 g ai/ha)	Plant response rating, Pigweed ([3]; 125 g ai/ha)	Plant response rating, Rice (rice (Oryza sativa))	Plant response rating, Foxtail, Giant ([4]; 125 g ai/ha)	Plant response rating, Ragweed ([5]; 125 g ai/ha)	Plant response rating, Ryegrass, Italian ([6]; 125 g ai/ha)	Plant response rating, Kochia (kochia (Kochia scoparia) [7]; 125 g ai/ha)	Plant response rating, Blackgrass ([8]; 125 g ai/ha)	Plant response rating, Sedge, Umbrella [9]	Plant response rating, Barnyardgrass [10]	Plant response rating, Ragweed ([11]; 125 g ai/ha)	Plant response rating, Kochia (kochia (Kochia scoparia) [12]; 125 g ai/ha)	Plant response rating, Ryegrass, Italian ([13]; 125 g ai/ha)	Plant response rating, Barnyardgrass ([14]; 125 g ai/ha)	Plant response rating, Corn (corn (Zea mays); 125 g ai/ha)	Plant response rating, Wheat ([15]; 125 g ai/ha)	Plant response rating, Foxtail, Giant ([16]; 125 g ai/ha)	Plant response rating, Pigweed ([17]; 125 g ai/ha)	Plant response rating, Barnyardgrass ([18]; 125 g ai/ha)	also measured
FC(F)C(F)(F)C(F)(F)C(F)(F)COc1c(Br)cccc1Oc1ncc(Cl)cn1 [Compound 53]	90	90	100	15	30	40	20	100	30	80	0	0	20	20	40	10	10	100	80	60	Plant response rating, Galium ([2]; 500 g ai/ha): 100; Plant response rating, Pigweed ([3]; 500 g ai/ha): 100; Plant response rating, Foxtail, Giant ([4]; 500 g ai/ha): 100; Plant response rating, Ragweed ([5]; 500 g ai/ha): 80; Plant response rating, Ryegrass, Italian ([6]; 500 g ai/ha): 70; Plant response rating, Kochia (kochia (Kochia scoparia) [7]; 500 g ai/ha): 100; Plant response rating, Blackgrass ([8]; 500 g ai/ha): 60; Plant response rating, Ragweed ([11]; 500 g ai/ha): 20; Plant response rating, Kochia (kochia (Kochia scoparia) [12]; 500 g ai/ha): 90; Plant response rating, Ryegrass, Italian ([13]; 500 g ai/ha): 80; Plant response rating, Barnyardgrass ([14]; 500 g ai/ha): 100; Plant response rating, Corn (corn (Zea mays); 500 g ai/ha): 30; Plant response rating, Wheat ([15]; 500 g ai/ha): 30; Plant response rating, Foxtail, Giant ([16]; 500 g ai/ha): 100; Plant response rating, Pigweed ([17]; 500 g ai/ha): 100; Plant response rating, Barnyardgrass ([18]; 500 g ai/ha): 100
FC(F)(F)CCCOc1c(Oc2ncc(Cl)cn2)cccc1C(F)(F)F [Compound 54]	100	50	80	40	70	10	20	50	10	100	40	0	30	80	20	20	10	100	100	90	Plant response rating, Galium ([2]; 31 g ai/ha): 20; Plant response rating, Pigweed ([3]; 31 g ai/ha): 20; Plant response rating, Foxtail, Giant ([4]; 31 g ai/ha): 10; Plant response rating, Ragweed ([5]; 31 g ai/ha): 0; Plant response rating, Ryegrass, Italian ([6]; 31 g ai/ha): 0; Plant response rating, Kochia (kochia (Kochia scoparia) [7]; 31 g ai/ha): 10; Plant response rating, Blackgrass ([8]; 31 g ai/ha): 0; Plant response rating, Ragweed ([11]; 31 g ai/ha): 0; Plant response rating, Kochia (kochia (Kochia scoparia) [12]; 31 g ai/ha): 0; Plant response rating, Ryegrass, Italian ([13]; 31 g ai/ha): 10; Plant response rating, Barnyardgrass ([14]; 31 g ai/ha): 10; Plant response rating, Corn (corn (Zea mays); 31 g ai/ha): 10; Plant response rating, Wheat ([15]; 31 g ai/ha): 0; Plant response rating, Foxtail, Giant ([16]; 31 g ai/ha): 50; Plant response rating, Pigweed ([17]; 31 g ai/ha): 20; Plant response rating, Barnyardgrass ([18]; 31 g ai/ha): 20
